In patent US20260028334A1, “N-(3-(BENZO[B]THIOPHENE-2-CARBOXAMIDO)-PHENYL)-2,3-DIHYDROBENZO[B][1,4]DIOXINE-6-CARBOXAMIDE DERIVATIVES AND RELATED COMPOUNDS AS LACTATE/ATP PRODUCTION INHIBITORS FOR THE TREATMENT OF CANCER” (WMT Aktiengesellschaft, priority 2022, published 2026):

Legend:
Assay type in all cases: cell-based
[1] = molecular target: HIF1a (Homo sapiens (Human), UniProt Q16665); assay: Western Blot analysis of HIF1a; settings: HeLa cells, 24 hours, 0.1, 0.3 and 1 μM, normoxic and hypoxic conditions, FIG. 4
Experimental: (§1) Western Blot analysis was used to detect amounts of specific protein in differently treated cells. Proteins are separated by size, transferred onto a nitrocellulose membrane and incubated with protein specific antibodies. The density of the observed band is proportional to the amount of the specific protein inside the cell.
Cells were plated at 4×10^6 (for hypoxia) or 3×10^6 (for normoxia) cells per […] plate in medium of high glucose DMEM (PAN) supplemented with 10% FBS (PAN), 2 mM glutamine-alanine (PAN), 2 mM pyruvate (Sigma) and 10 ml/L penicillin-streptomycin (PAN), and grown at 37° C. in 0.5% O2, 5% CO2 and 75% humidity. For hypoxia, cells were grown and treated in the Whitley H35 Hypoxystation (Don Whitley Scientific) at 37° C. in 0.5% O2, 5% CO2 and 75% humidity. Next day, the cells were treated with test compounds (FIG. 4: compounds of example 3/8 and 10 at concentrations 0.1, 0.3 and 1 μM, Bafilomycin A at 20 nM; FIG. 5: compounds of example 3/16, 3/8 and 10 at concentrations 10, 30 and 100 nM, Bafilomycin A at 20 nM), as well as with vehicle (DMSO) only, for 24 h. […] Protein concentration of the sample was measured using the DC Protein Assay Kit (Biorad, 5000112), 22 μg of protein extract per well was loaded onto a precast SDS page gel (Biorad, 1704273). […] The chemiluminescence was measured using chemiluminescent substrate (#34580, Thermo Scientific).

[2] = tested on: Panc02 and SKOV3 cells; assay: Lactate production inhibition assay (FIGS. 8C and 8D); settings: 48 hours treatment, 1.5 to 10000 nM
Description: (§2) Recombinant Lactate Dehydrogenase A (LDHA) was used to convert lactate in tissue culture supernatants to pyruvate, with the concomitant reduction of NAD^+ to NADH. The electron acceptor 1-methoxyphenazine methosulfate (MPMS) was then reduced by the generated NADH, thereby regenerating NAD+. Reduced 1-methoxyphenazine methosulfate is used in turn to reduce Water Soluble Tetrazolium 8 (WST8) to an orange WST8 formazan product. The assay is adapted from the publication “Application of WST-8 based colorimetric NAD(P)H detection for quantitative dehydrogenase assays” described in Chamchoy et al., BMC Biochemistry (2019) 20(1):4.
(§3) Cells were plated at 4,000 per well in 96-well plate in a medium of high glucose DMEM (PAN) supplemented with 10% FBS (PAN), 2 mM glutamine-alanine (PAN), 2 mM pyruvate (Sigma) and 10 mL/L penicillin-streptomycin (PAN) and grown at 37° C. in 0.5% O2, 5% CO2 and 75% humidity. For hypoxia, cells were grown and treated in the Whitley H35 Hypoxystation (Don Whitley Scientific) at 37° C. in 0.5% O2, 5% CO2 and 75% humidity. The next day, cells were induced with test compounds (FIG. 2: compounds of examples 3/16, 3/8, 10 at 10000, 3333, 1111, 370, 123, 41, 14, 5 and 1.5 nM; FIG. 7: compounds of examples 3/16, 3/8, 10 at 41, 14, 4.6 nM and Phenformin at 100, 50, 25, 12.5, 6.25 μM; FIGS. 8C and 8D: compounds of example 3/16, 3/8, 10, 3/19, 30 and 30/2 at 10000, 3333, 1111, 370, 123, 41, 14, 5 and 1.5 nM), as well as with vehicle (DMSO) only, for 48 hours. After this time, the medium was removed from the cells to measure extracellular lactate. To detect extracellular lactate, cell supernatants are diluted 1:5 in assay buffer (0.2 M tris, pH 8.2) by adding 10 μl cell supernatant+40 μl buffer in a 96-well plate. Assay substrate mix is prepared by adding NAD+ (3.75 mM), WST-8 (0.9 mM), MPMS (10 mM) and recombinant LDHA, expressed in E. coli as an N-terminal hexahistidine tagged fusion protein, is added to a final concentration of 0.8 μg/ml in assay buffer. Thereafter, 80 μl of substrate mix is added to 20 μl of diluted cell supernatant in a 96-well flat-bottomed plate and the absorbance at 460 nm determined at one minute intervals over a 30 minute period. A standard curve of known lactate concentrations of 10, 8, 6, 4, 1, 0.5 and 0.25 mM was constructed for each assay plate.

[3] = molecular target: p62 (Homo sapiens (Human), UniProt Q13501); assay: Western Blot analysis of p62; settings: HeLa cells, normoxic and hypoxic conditions; for p62: 24 hours, 10, 30 and 100 nM, also with Bafilomycin A, FIG. 5
Experimental: as §1
Cells were plated at 4×10^6 (for hypoxia) or 3×10^6 (for normoxia) cells per […] plate in medium of high glucose DMEM (PAN) supplemented with 10% FBS (PAN), 2 mM glutamine-alanine (PAN), 2 mM pyruvate (Sigma) and 10 ml/L penicillin-streptomycin (PAN), and grown at 37° C. in […], 5% CO2 and 75% humidity. For hypoxia, cells were grown and treated in the Whitley H35 Hypoxystation (Don Whitley Scientific) at 37° C. in 0.5% O2, 5% CO2 and 75% humidity. Next day, the cells were treated with test compounds (FIG. 4: compounds of example 3/8 and 10 at concentrations 0.1, 0.3 and 1 μM, Bafilomycin A at 20 nM; FIG. 5: compounds of example 3/16, 3/8 and 10 at concentrations 10, 30 and 100 nM, Bafilomycin A at 20 nM), as well as with vehicle (DMSO) only, for 24 h. After 24 hours, the cells were washed with PBS and scraped to collect. The lysate was centrifuged at 2,000 rpm for 3 min at 4° C. The cell pellet was resuspended in 250 μl Lysis Buffer (20 mM Tris pH 7.8, 150 mM NaCl, 0.05% Tween20, 2 mM MgCl2, protease inhibitors (Roche), 1 mM NaF, 1 mM Na3VO4) and sonicated at 50% for 20 sec. The sample was centrifuged at 14,000 rpm for 4 min at 4° C. Protein concentration of the sample was measured using the DC Protein Assay Kit (Biorad, 5000112), 22 μg of protein extract per well was loaded onto a precast SDS page gel (Biorad, 1704273). Proteins were then transferred onto a PVDF-membrane (Biorad, 10026933) using Biorad Trans-Blot Turbo Transfer System. […] The chemiluminescence was measured using chemiluminescent substrate (#34580, Thermo Scientific).

[4] = tested on: lactate production; assay: Lactate production inhibition assay; settings: summary of Table 1
Description: as §2, §3

[5] = tested on: HeLa cells; assay: Lactate production inhibition assay, co-treatment with phenformin (FIG. 7); settings: 48 hours co-treatment of phenformin (6.25-100 μM) with compound at 41, 14, 4.6 nM
Description: as §2
Cells were plated at 4,000 per well in 96-well plate in a medium of high glucose DMEM (PAN) supplemented with 10% FBS (PAN), 2 mM glutamine-alanine (PAN), 2 mM pyruvate (Sigma) and 10 mL/L penicillin-streptomycin (PAN) and grown at 37° C. in 0.5% O2, 5% CO2 and 75% humidity. For hypoxia, cells were grown and treated in the Whitley H35 Hypoxystation (Don Whitley Scientific) at 37° C. in 0.5% O2, 5% CO2 and 75% humidity. […] Thereafter, 80 μl of substrate mix is added to 20 μl of diluted cell supernatant in a 96-well flat-bottomed plate and the absorbance at 460 nm determined at one minute intervals over a 30 minute period. […]

| HIF1a protein levels [1] | p62 protein levels ([3]; 24 hours, 0.1, 0.3 and 1 μM, FIG. 4) | p62 [3] | Compound | lactate levels [2] | activity in inhibiting production of ATP and/or lactate [4] | lactate levels [5] |
| --- | --- | --- | --- | --- | --- | --- |
| dose-dependent reduction | dose-dependent reduction | dose-dependent reduction | O=C(Nc1ccc(F)c(NC(=O)c2cc3ccc(OCCCN4CCCC4)cc3s2)c1)c1ccc2c(c1)OCCO2 [3/8] | dose-dependent downregulation | high activity | downregulation |
| – | – | dose-dependent reduction | Cc1ccc(NC(=O)c2ccc3c(c2)OCCO3)cc1NC(=O)c1cc2cccnc2s1 [3/16] | dose-dependent downregulation | high activity | downregulation |
